Measured values: paper PMC11784183, “Identification of an antibiotic from an HTS targeting EF-Tu:tRNA interaction: a prospective topical treatment for MRSA skin infections” (Applied and Environmental Microbiology, 2024)
≈ marks a conversion by molar mass, not a printed value. Read-outs that look alike come from different tables or passages of the source.

Key:
[1] = system: B. subtilis; experiment: Inhibition of bacterial growth in liquid culture; assay type: cell-based; conditions: Bacillus subtilis
Method: (§1) Strains and reagents were the same as in the zone-inhibition assay (above). […] The culture was diluted again 1/500 in 1 mL of fresh media with the presence of increasing concentrations of tested compound or 1% DMSO as a control.

[2] = system: E. coli; experiment: Inhibition of bacterial growth; assay type: cell-based; conditions: not shown
Method: as §1

[3] = system: S. aureus; experiment: Drug susceptibility assay (96-well, MIC); assay type: cell-based; conditions: Staphylococcus aureus
[4] = system: P. aeruginosa (ATCC BAA47); experiment: Drug susceptibility assay (96-well, MIC); assay type: cell-based; conditions: Pseudomonas aeruginosa, ATCCBAA47; Gram-negative
[5] = system: K. pneumoniae (ATCC 43816); experiment: Drug susceptibility assay (96-well, MIC); assay type: cell-based; conditions: Klebsiella pneumoniae, ATCC43816; Gram-negative
[6] = system: A. baumannii (ATCC 17988); experiment: Drug susceptibility assay (96-well, MIC); assay type: cell-based; conditions: Acinetobacter baumannii, ATCC17988; Gram-negative
[7] = system: M. tuberculosis H37Rv (ATTC 27294); experiment: Drug susceptibility assay (96-well, MIC); assay type: cell-based; conditions: Mycobacterium tuberculosis, Acid-fast
[8] = system: ribosomal translation in vitro (PURExpress); experiment: Purified in vitro translation assay (PURExpress); assay type: biochemical; conditions: highest concentration tested
From the text: (A) Coomassie blue staining of sodium dodecyl sulfate polyacrylamide gel electrophoresis (SDS-PAGE) following in vitro translation with the PURExpress translation kit (New England Biolabs). The protein synthesized (Dihydrofolate reductase) in the reaction is shown in the small rectangles superimposed on the gel. (B) Quantification using a BioRad gel scanner and software provided with this scanner.
PURExpress in vitro purified ribosomal translation kit (New England Biolabs) was used. Biochemical protocols used were as described by the manufacturer.

[9] = system: Staphylococcus aureus; experiment: MIC testing by broth microdilution; assay type: cell-based
[10] = system: S. capitis; experiment: MIC testing by broth microdilution; assay type: cell-based; conditions: Staphylococcus capitis
[11] = system: S. caprae; experiment: MIC testing by broth microdilution; assay type: cell-based; conditions: BK strain 22945
[12] = system: S. cohnii; experiment: MIC testing by broth microdilution; assay type: cell-based; conditions: Staphylococcus cohnii; BK strain 22939
[13] = system: S. epidermidis; experiment: MIC testing by broth microdilution; assay type: cell-based
[14] = system: S. gallinarum; experiment: MIC testing by broth microdilution; assay type: cell-based; conditions: BK strain 26189
[15] = system: S. haemolyticus; experiment: MIC testing by broth microdilution; assay type: cell-based; conditions: Staphylococcus haemolyticus; BK strain 21148
[16] = system: S. lentus; experiment: MIC testing by broth microdilution; assay type: cell-based
[17] = system: S. lugdunensis; experiment: MIC testing by broth microdilution; assay type: cell-based
[18] = system: S. pseudintermedius; experiment: MIC testing by broth microdilution; assay type: cell-based
[19] = system: S. saprophyticus; experiment: MIC testing by broth microdilution; assay type: cell-based
[20] = system: S. sciuri; experiment: MIC testing by broth microdilution; assay type: cell-based
[21] = system: S. simulans; experiment: MIC testing by broth microdilution; assay type: cell-based; conditions: Staphylococcus simulans; BK strain 26201
[22] = system: S. warneri; experiment: MIC testing by broth microdilution; assay type: cell-based
[23] = system: S. xylosus; experiment: MIC testing by broth microdilution; assay type: cell-based; conditions: Staphylococcus xylosus; BK strain 26203
[24] = assay type: in vitro ADME, rat
Method: (§2) Briefly, each reaction mixture (110 µL) consisted of a test article (1 µM), mix gender human, male Sprague Dawley rat or male CD-1 mouse microsomal fractions (0.5 mg/mL), and NADPH regenerating system in phosphate buffer at pH 7.4. Samples were incubated in 384-well plates at 37°C for 0, 5, 10, 15, 30, and 60 min. Sample analysis and half-life calculations were performed using a previously described method ([22]). The three controls used were Buspirone (short half-life), Loperamide (moderate half-life), and Antipyrine (long half-life).
(§3) Categories were defined as follows: unstable, t1/2 < 30 min; stable, t1/2 > 30 min.

[25] = assay type: in vitro ADME, human
Method: as §2, §3

[26] = system: S. aureus USA300 subcutaneous infection; experiment: Mouse skin infection model, topical ointment; assay type: in vivo, mice; conditions: topical ointment daily
[27] = system: non-aureus staphylococcal strains (14 species); experiment: MIC testing by broth microdilution, panel of non-aureus staphylococcal strains; assay type: cell-based, Staphylococcus spp.; conditions: Staphylococcus; for 18 of 23 other Staphylococcal strains; read-out: MIC90 and MIC50
[28] = system: Vero cells (ATCC CCL-81)
Method: Compounds were tested for cytotoxicity against Vero cells using the CellTiter 96 AQueous One Solution Assay kit (Promega). Vero cells were seeded in 96-well plates at a density of 2 × 10^4 cells per well, and the plates were incubated for 4 h at 37°C to allow attachments of the Vero cells. Chemical compounds being tested were then added to the wells starting from a final concentration of 50 µg/mL and making 12 1:2 dilutions. Cells were incubated for 72 h at 37°C, after which 20 µL of freshly prepared MTS:PMS reagents were added to each well. Plates were incubated for 2 h and then read at an absorbance of 490 nm.

[29] = system: S. aureus USA300; conditions: 15 µM, 0-4 h
Method: S. aureus USA300 was inoculated 1:100 into LB medium from overnight cultures. Cells were grown to the early exponential phase and back diluted to OD600 0.1. […] Samples were serially diluted and plated on LB agar. Colonies were enumerated after overnight incubation at 37°C. Time-kill experiments were performed with n = 4 biological replicates.

[30] = male, C57B6, mouse, in vivo, ip, 10 mg/kg, 7 h
[31] = mouse, in vivo, ip, 10 mg/kg
[32] = system: ERβ receptor; design: method as in PMID 9927308; conditions: cited from earlier work
[33] = in vivo; conditions: male, C57B6, mouse, ip, 10 mg/kg

CC[C@@H]1Cc2cc(O)ccc2C2=C1c1ccc(O)cc1C[C@H]2CC [MGC-10]
inhibition at 6 µM [1]: 97%
inhibition of growth of E. coli [2]: No inhibition
MIC ([3]; ATCC25923): 6.25 µM (≈ 2 µg/mL)
MIC ([3]; ATCC35556): 6.25 µM (≈ 2 µg/mL)
MIC ([3]; ATCC 43300 / MRSA, S. aureus mecA + (MRSA) (ATCC 43300), Gram-positive, read-out: MIC): 6.25 µM
MIC [4]: > 100 µM
MIC [5]: > 100 µM
MIC [6]: > 100 µM
MIC [7]: 100 µM (≈ 32 µg/mL)
complete inhibition of translation [8]: complete inhibition was not achieved
MIC ([9]; MRSA / USA300, BK strain 19494, CC 8, USA300, MRSA): 6 µM (≈ 1.92 µg/mL)
MIC ([9]; MRSA / USA300 / USA500, MRSA clinical isolates typed as USA300 and USA500): 6 µM (≈ 1.92 µg/mL)
MIC ([9]; MRSA / USA400, BK strain 19484, CC 1, USA400, MRSA): 6 µM (≈ 1.92 µg/mL)
MIC ([9]; MRSA / USA600, BK strain 18519, CC 45, USA600, MRSA): 6 µM (≈ 1.92 µg/mL)
MIC ([9]; MRSA / USA800, BK strain 18267, CC 5, USA800, MRSA): 6 µM (≈ 1.92 µg/mL)
MIC ([9]; MRSA, BK strain 13180, CC 8, Trimethoprim-sulfamethoxazole resistant): 6 µM (≈ 1.92 µg/mL)
MIC ([9]; MRSA, BK strain 21209, CC 8, Linezolid resistant): 6 µM (≈ 1.92 µg/mL)
MIC ([9]; MRSA, BK strain 21346, CC 5, Tigecycline resistant): 6 µM (≈ 1.92 µg/mL)
MIC ([9]; MRSA, BK strain 21347, CC 22, Linezolid resistant): 6 µM (≈ 1.92 µg/mL)
MIC ([9]; MRSA, BK strain 22522, CC 5, Vancomycin resistant (vanA+), MRSA): 6 µM (≈ 1.92 µg/mL)
MIC ([9]; MRSA, BK strain 22523, CC 5, Vancomycin resistant (vanA+), MRSA): 6 µM (≈ 1.92 µg/mL)
MIC ([9]; MRSA, BK strain 23735, CC 125, BORSA): 6 µM (≈ 1.92 µg/mL)
MIC ([9]; MRSA, BK strain 23736, CC 1, BORSA): 6 µM (≈ 1.92 µg/mL)
MIC ([9]; MRSA, BK strain 26638, CC 398, LA-MRSA): 6 µM (≈ 1.92 µg/mL)
MIC ([9]; MRSA, BK strain 46376, CC 8, hVISA): 6 µM (≈ 1.92 µg/mL)
MIC ([9]; MRSA, BK strain 46377, CC 8, hVISA): 6 µM (≈ 1.92 µg/mL)
MIC ([9]; MRSA, BK strain 58711, CC 5, Rifampin resistant): 6 µM (≈ 1.92 µg/mL)
MIC ([9]; MRSA, BK strain 59775, CC 8, Trimethoprim-sulfamethoxazole resistant): 6 µM (≈ 1.92 µg/mL)
MIC ([9]; MRSA, BK strain 61828, CC 398, MRSA): 6 µM (≈ 1.92 µg/mL)
MIC ([9]; MRSA, BK strain 62861, CC 45, MRSA): 6 µM (≈ 1.92 µg/mL)
MIC ([9]; MRSA, BK strain 62874, CC 59, MRSA): 6 µM (≈ 1.92 µg/mL)
MIC ([9]; MRSA, BK strain 62961, CC 5, MRSA): 6 µM (≈ 1.92 µg/mL)
MIC ([9]; MRSA, BK strain 62969, CC 5, MRSA): 6 µM (≈ 1.92 µg/mL)
MIC ([9]; MRSA, BK strain 62976, CC 398, MRSA): 6 µM (≈ 1.92 µg/mL)
MIC ([9]; MRSA, BK strain 63193, CC 30, MRSA): 6 µM (≈ 1.92 µg/mL)
MIC ([9]; MRSA, BK strain 63218, CC 8, MRSA): 6 µM (≈ 1.92 µg/mL)
MIC ([9]; MRSA, BK strain 63341, CC 8, MRSA): 6 µM (≈ 1.92 µg/mL)
MIC ([9]; MRSA, BK strain 63738, CC 59, MRSA): 6 µM (≈ 1.92 µg/mL)
MIC ([9]; MRSA, BK strain 63765, CC 30, MRSA): 12 µM (≈ 3.85 µg/mL)
MIC ([9]; MRSA, BK strain 63776, CC 398, MRSA): 6 µM (≈ 1.92 µg/mL)
MIC ([9]; MRSA, BK strain 63777, CC 45, MRSA): 6 µM (≈ 1.92 µg/mL)
MIC ([9]; MRSA, methicillin-resistant Staphylococcus aureus (MRSA), abstract): 6 µM (≈ 1.92 µg/mL)
MIC ([9]; MSSA / NCTC 8325, BK strain 21189, CC 8, MSSA (NCTC 8325)): 12 µM (≈ 3.85 µg/mL)
MIC ([9]; MSSA, BK strain 73239, Mupirocin R): 1.5 µM (≈ 0.481 µg/mL)
MIC ([9]; MSSA, BK strain 73242, Mupirocin R): 3 µM (≈ 0.961 µg/mL)
MIC ([9]; MSSA, BK strain 73250, Mupirocin R): 3 µM (≈ 0.961 µg/mL)
MIC ([9]; MSSA, BK strain 73267, Mupirocin R): 6 µM (≈ 1.92 µg/mL)
MIC ([9]; MSSA, BK strain 73269, Mupirocin R): 6 µM (≈ 1.92 µg/mL)
MIC ([9]; MSSA, BK strain 73336, Mupirocin R): 12 µM (≈ 3.85 µg/mL)
MIC ([9]; MSSA, BK strain 73337, Mupirocin R): 3 µM (≈ 0.961 µg/mL)
MIC90 ([9]; for 29 of 31 MRSA strains, read-out: MIC90 and MIC50): 6 µM (≈ 1.92 µg/mL)
MIC ([9]; laboratory S. aureus strain 8325): 12 µM (≈ 3.85 µg/mL)
MIC ([10]; BK strain 22034): 12 µM (≈ 3.85 µg/mL)
MIC ([10]; BK strain 24463): 6 µM (≈ 1.92 µg/mL)
MIC [11]: 6 µM (≈ 1.92 µg/mL)
MIC [12]: 12 µM (≈ 3.85 µg/mL)
MIC ([13]; BK strain 26974, Methicillin R): 6 µM (≈ 1.92 µg/mL)
MIC ([13]; Staphylococcus epidermidis, BK strain 21192, Methicillin R): 6 µM (≈ 1.92 µg/mL)
MIC [14]: 12 µM (≈ 3.85 µg/mL)
MIC [15]: 12 µM (≈ 3.85 µg/mL)
MIC ([16]; BK strain 26639, Methicillin R): 6 µM (≈ 1.92 µg/mL)
MIC ([16]; Mammaliicoccus lentus, BK strain 26191): 6 µM (≈ 1.92 µg/mL)
MIC ([17]; BK strain 28088, Methicillin R): 6 µM (≈ 1.92 µg/mL)
MIC ([17]; Staphylococcus lugdunensis, BK strain 26192): 6 µM (≈ 1.92 µg/mL)
MIC ([18]; BK strain 24474): 6 µM (≈ 1.92 µg/mL)
MIC ([18]; BK strain 25938): 6 µM (≈ 1.92 µg/mL)
MIC ([18]; BK strain 26190): 12 µM (≈ 3.85 µg/mL)
MIC ([19]; BK strain 26195): 6 µM (≈ 1.92 µg/mL)
MIC ([19]; Staphylococcus saprophyticus, BK strain 26194): 6 µM (≈ 1.92 µg/mL)
MIC ([20]; BK strain 26200): 6 µM (≈ 1.92 µg/mL)
MIC ([20]; Mammaliicoccus sciuri, BK strain 26199): 6 µM (≈ 1.92 µg/mL)
MIC [21]: 6 µM (≈ 1.92 µg/mL)
MIC ([22]; BK strain 26202): 6 µM (≈ 1.92 µg/mL)
MIC ([22]; Staphylococcus warneri, BK strain 24473): 6 µM (≈ 1.92 µg/mL)
MIC [23]: 6 µM (≈ 1.92 µg/mL)
depletion of the compound in liver microsomes [24]: no depletion
depletion of the compound in liver microsomes [25]: no depletion
dermonecrosis as a result of S. aureus infection (area over time) ([26]; 5 days, vs untreated control (ointment without drug)): able to reduce dermonecrosis
bacterial burden in punch biopsies ([26]; day 5, vs untreated control): not statistically significant (P = 0.0575)
MIC90 [27]: 6 µM (≈ 1.92 µg/mL)
cytotoxicity against Vero mammalian cells [28]: no cytotoxicity
MIC (cytotoxicity, Vero) ([28]; African green monkey, 72 h): 50 µM (≈ 16 µg/mL)
bactericidal test (CFU/mL over time) [29]: notable bactericidal activity
Clast [30]: 532 ng/mL
in-life observations [31]: exhibited hunched postures; and were lethargic
activity at ERβ receptor [32]: antagonist
AUC(0-inf) [33]: 171 µg·h/mL
half-life [33]: 2.1 h
concentration at 7 h ([33]; Clast): 733 ng/mL
